Assay results published in PubChem BioAssay AID248 (DTP/NCI, 2004).
Several values for one entry are separate records, joined by “and”; a condition that tells them apart may be missing. Equal entries are not always repeated. Toxic doses and inconclusive results are not listed. Rule as the data show it: active = T/C of 150% or more; inactive = T/C below 125%.

System: L1210 leukemia ip in BDF1 mice, survival T/C
Assay: NCI In Vivo Anticancer Drug Screen. Data for tumor model L1210 Leukemia (intraperitoneal) in B6D2F1 (BDF1) mice
Settings: endpoint: mean survival time, higher = longer survival
Outline: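 Survival endpoint. Drug-treated group vs vehicle group, expressed as T divided by C. Tumor passaged by transplantation.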

[1] = dose: 100.0 mg/kg/injection, schedule: Q04DX003 (ip), vehicle: saline with Tween-80
[2] = dose: 100.0 mg/kg/injection, schedule: Q04DX003 (ip), vehicle: Klucel (hydroxypropylcellulose) (HPC)
[3] = dose: 200.0 mg/kg/injection, schedule: Q04DX003 (ip), vehicle: Klucel (hydroxypropylcellulose) (HPC)
[4] = dose: 50.0 mg/kg/injection, schedule: Q01DX009 (ip), vehicle: saline
[5] = dose: 100.0 mg/kg/injection, schedule: Q01DX009 (ip), vehicle: Klucel (hydroxypropylcellulose) (HPC)
[6] = dose: 200.0 mg/kg/injection, schedule: Q01DX009 (ip), vehicle: Klucel (hydroxypropylcellulose) (HPC)
[7] = dose: 400.0 mg/kg/injection, schedule: Q04DX003 (ip), vehicle: Klucel (hydroxypropylcellulose) (HPC)
[8] = dose: 400.0 mg/kg/injection, schedule: Q01DX009 (ip), vehicle: Klucel (hydroxypropylcellulose) (HPC)
[9] = dose: 100.0 mg/kg/injection, schedule: Q01DX009 (ip), vehicle: saline
[10] = dose: 200.0 mg/kg/injection, schedule: Q01DX009 (ip), vehicle: saline

Measured: T/C

C=CCc1ccc(OCC(N)=O)c(OC)c1
inactive: [1] 107 % of control | dose: 200.0 mg/kg/injection, schedule: Q04DX003 (ip), vehicle: saline with Tween-80 107 % of control | dose: 400.0 mg/kg/injection, schedule: Q04DX003 (ip), vehicle: saline with Tween-80 109 % of control

O=C(CC(C(=O)O)N1CCOCC1)c1ccccc1 (stereo not drawn)
inactive: dose: 50.0 mg/kg/injection, schedule: Q01DX009 (ip), vehicle: saline sonified 99 % of control | dose: 100.0 mg/kg/injection, schedule: Q01DX009 (ip), vehicle: saline sonified 97 % of control | [2] 97 % of control | dose: 200.0 mg/kg/injection, schedule: Q01DX009 (ip), vehicle: saline sonified 97 % of control | [3] 92 % of control

N#Cc1ccnc2ccccc12
inactive: dose: 100.0 mg/kg/injection, schedule: Q01DX001 (ip), vehicle: carboxymethylcellulose (CMC) 97 % of control | dose: 200.0 mg/kg/injection, schedule: Q01DX001 (ip), vehicle: carboxymethylcellulose (CMC) 97 % of control | dose: 400.0 mg/kg/injection, schedule: Q01DX001 (ip), vehicle: carboxymethylcellulose (CMC) 98 % of control

COc1cc(OC)c(/C=C/c2c3ccccc3cc[n+]2C)c(OC)c1
inactive: dose: 0.78 mg/kg/injection, schedule: Q01DX009 (ip), vehicle: saline with Tween-80 100 % of control | dose: 1.56 mg/kg/injection, schedule: Q01DX009 (ip), vehicle: saline with Tween-80 97 % of control

Cc1ccc(S(=O)(=O)OC2CN3CCC2CC3)cc1 (stereo not drawn)
inactive: dose: 12.5 mg/kg/injection, schedule: Q01DX009 (ip), vehicle: saline 95 % of control | dose: 25.0 mg/kg/injection, schedule: Q01DX009 (ip), vehicle: saline 100 % of control | [4] 101 % of control and 102 % of control

CCCCNC(C)(C)C1(c2ccc(Cl)cc2)SSC(c2ccc(Cl)cc2)(C(C)(C)NCCCC)SS1 (stereo not drawn)
inactive: [5] 99 % of control | [2] 93 % of control | [6] 99 % of control | [3] 101 % of control | [7] 97 % of control

CCOC1C=CC(OC(C)=O)C(COC(C)=O)O1 (stereo not drawn)
inactive: [5] 108 % of control | [2] 96 % of control | [6] 100 % of control | [3] 96 % of control | [8] 104 % of control | [7] 94 % of control

C=C1C(=O)O[C@@H]2C[C@@]3(C)CCC[C@H](C)C3=C[C@H]12
inactive: dose: 100.0 mg/kg/injection, schedule: Q01DX001 (ip), vehicle: saline 112 % of control | dose: 200.0 mg/kg/injection, schedule: Q01DX001 (ip), vehicle: saline 98 % of control | dose: 400.0 mg/kg/injection, schedule: Q01DX001 (ip), vehicle: saline 102 % of control

O=C(NC(CSC(=O)OCc1ccccc1)C(=O)Oc1ccc([N+](=O)[O-])cc1)OCc1ccccc1 (stereo not drawn)
inactive: [5] 104 % of control | [2] 97 % of control | [6] 114 % of control | [3] 100 % of control | [8] 109 % of control | [7] 103 % of control

C/C=C(/Cl)C(=O)O
inactive: dose: 5.0 mg/kg/injection, schedule: Q01DX001 (ip), vehicle: saline 100 % of control | dose: 10.0 mg/kg/injection, schedule: Q01DX001 (ip), vehicle: saline 97 % of control | dose: 20.0 mg/kg/injection, schedule: Q01DX001 (ip), vehicle: saline 97 % of control | dose: 40.0 mg/kg/injection, schedule: Q01DX001 (ip), vehicle: saline 103 % of control | dose: 80.0 mg/kg/injection, schedule: Q01DX001 (ip), vehicle: saline 103 % of control

CCCC[N+](C)(CCCC)CC(O)c1cc(-c2ccc(Cl)cc2)nc2c(Cl)cc(Cl)cc12 (stereo not drawn)
inactive: dose: 12.5 mg/kg/injection, schedule: Q04DX003 (ip), vehicle: saline 102 % of control

O=C(O)CCCCCN1C(=O)C2CC=CCC2C1=O (stereo not drawn)
inactive: dose: 6.0 mg/kg/injection, schedule: Q04DX002 (ip), vehicle: saline with Tween-80 106 % of control | dose: 12.5 mg/kg/injection, schedule: Q04DX002 (ip), vehicle: saline with Tween-80 91 % of control | dose: 25.0 mg/kg/injection, schedule: Q04DX002 (ip), vehicle: saline with Tween-80 98 % of control | dose: 50.0 mg/kg/injection, schedule: Q04DX002 (ip), vehicle: saline with Tween-80 102 % of control

O=C(OCCN1C(=O)c2cccc3c(Br)ccc(c23)C1=O)OCc1ccccc1
inactive: dose: 100.0 mg/kg/injection, schedule: Q04DX002 (ip), vehicle: alcohol 103 % of control | dose: 200.0 mg/kg/injection, schedule: Q04DX002 (ip), vehicle: alcohol 100 % of control | dose: 400.0 mg/kg/injection, schedule: Q04DX002 (ip), vehicle: alcohol 100 % of control

COc1cccc(NC(=O)NCCCl)c1OC
inactive: [2] 107 % of control | [3] 96 % of control | [7] 102 % of control

NC(=O)C(O)C(Br)(Br)Br (stereo not drawn)
inactive: [9] 94 % of control | dose: 100.0 mg/kg/injection, schedule: Q04DX003 (ip), vehicle: saline 97 % of control | [10] 95 % of control | dose: 200.0 mg/kg/injection, schedule: Q04DX003 (ip), vehicle: saline 93 % of control | dose: 400.0 mg/kg/injection, schedule: Q01DX009 (ip), vehicle: saline 90 % of control | dose: 400.0 mg/kg/injection, schedule: Q04DX003 (ip), vehicle: saline 97 % of control

CCC(=O)c1ccc(NC(C)=O)cc1
inactive: [5] 100 % of control | [2] 99 % of control | [6] 100 % of control | [3] 96 % of control | [8] 103 % of control | [7] 96 % of control

Cc1ccnc(NC(=O)Nc2cc(C)ccc2C)c1
inactive: [5] 94 % of control | [6] 91 % of control | [8] 92 % of control

CCC(/C=C1\Sc2ccc(C)cc2N1CC)=C\c1sc2ccc(OC)cc2[n+]1CC
inactive: dose: 2.0 mg/kg/injection, schedule: Q01DX001 (ip), vehicle: other 106 % of control | dose: 4.0 mg/kg/injection, schedule: Q01DX001 (ip), vehicle: other 105 % of control

C/C=C/C=N/NC(=O)c1ccc[n+](C)c1
inactive: [4] 112 % of control | [9] 104 % of control | [10] 112 % of control

CC(=O)N1CCOC12CCN(Cc1ccccc1)CC2
inactive: dose: 25.0 mg/kg/injection, schedule: Q01DX009 (ip), vehicle: saline with Tween-80 92 % of control | dose: 50.0 mg/kg/injection, schedule: Q01DX009 (ip), vehicle: saline with Tween-80 98 % of control | dose: 100.0 mg/kg/injection, schedule: Q01DX009 (ip), vehicle: saline with Tween-80 88 % of control | [1] 100 % of control

Cc1c(C)c2c(c(C)c1O)CC(CC(=O)CO)CO2 (stereo not drawn)
inactive: dose: 100.0 mg/kg/injection, schedule: Q01DX001 (ip), vehicle: saline with Tween-80 97 % of control | dose: 200.0 mg/kg/injection, schedule: Q01DX001 (ip), vehicle: saline with Tween-80 95 % of control | dose: 400.0 mg/kg/injection, schedule: Q01DX001 (ip), vehicle: saline with Tween-80 97 % of control

CC12CCC(OC3OC(CO)C(O)C(O)C3O)CC1CCC1C2CCC2(C)C(C3=CC(=O)OC3)CCC12O (stereo not drawn)
inactive: dose: 10.0 mg/kg/injection, schedule: Q01DX009 (ip), vehicle: saline 101 % of control | dose: 20.0 mg/kg/injection, schedule: Q01DX009 (ip), vehicle: saline 96 % of control | dose: 40.0 mg/kg/injection, schedule: Q01DX009 (ip), vehicle: saline 102 % of control

CN(C)C1=NS(=O)(=O)N=C(N(C)c2ccccc2)O1
inactive: dose: 100.0 mg/kg/injection, schedule: Q01DX001 (ip), vehicle: Klucel (hydroxypropylcellulose) (HPC) 109 % of control | [2] 97 % of control | dose: 200.0 mg/kg/injection, schedule: Q01DX001 (ip), vehicle: Klucel (hydroxypropylcellulose) (HPC) 101 % of control | [3] 105 % of control | dose: 400.0 mg/kg/injection, schedule: Q01DX001 (ip), vehicle: Klucel (hydroxypropylcellulose) (HPC) 103 % of control | [7] 103 % of control
